Source: patent publication US5789379A, “Glucagon-like peptide-2 analogs” (Allelix Biopharmaceutical Inc., priority 1996, dated 1998)
Square brackets hold non-standard residues; d marks the D form. Ends that are not written are not given here. Peptide text beside a SMILES is read from it.

Assays:
human placental DPP-IV = target: T1, human placental DPP-IV (Homo sapiens, UniProt P27487); assay: Assay for resistance to dipeptidyl peptidase IV; type: in vitro ADME; settings: for cleavage products detected: after 24 hours incubation with DPP-IV at 37° C., RP-HPLC
T1 construct: a solution of human placental DPP-IV (Calbiochem, La Jolla, Calif., cat. # 317624); purchased Calbiochem, La Jolla, Calif; 317624; host or cells: human placenta (tissue-derived)
Protocol: Each peptide was tested in duplicate.
Sample components were detected at 214 nanometers (nm).

adenylate cyclase [1] = settings: liver plasma membranes; cited from earlier work
adenylate cyclase [2] = settings: rat hypothalamic and pituitary tissue; cited from earlier work
[3] = tested on: rat liver and brain tissues; settings: cited from earlier work

T1 sequence (P27487 whole entry): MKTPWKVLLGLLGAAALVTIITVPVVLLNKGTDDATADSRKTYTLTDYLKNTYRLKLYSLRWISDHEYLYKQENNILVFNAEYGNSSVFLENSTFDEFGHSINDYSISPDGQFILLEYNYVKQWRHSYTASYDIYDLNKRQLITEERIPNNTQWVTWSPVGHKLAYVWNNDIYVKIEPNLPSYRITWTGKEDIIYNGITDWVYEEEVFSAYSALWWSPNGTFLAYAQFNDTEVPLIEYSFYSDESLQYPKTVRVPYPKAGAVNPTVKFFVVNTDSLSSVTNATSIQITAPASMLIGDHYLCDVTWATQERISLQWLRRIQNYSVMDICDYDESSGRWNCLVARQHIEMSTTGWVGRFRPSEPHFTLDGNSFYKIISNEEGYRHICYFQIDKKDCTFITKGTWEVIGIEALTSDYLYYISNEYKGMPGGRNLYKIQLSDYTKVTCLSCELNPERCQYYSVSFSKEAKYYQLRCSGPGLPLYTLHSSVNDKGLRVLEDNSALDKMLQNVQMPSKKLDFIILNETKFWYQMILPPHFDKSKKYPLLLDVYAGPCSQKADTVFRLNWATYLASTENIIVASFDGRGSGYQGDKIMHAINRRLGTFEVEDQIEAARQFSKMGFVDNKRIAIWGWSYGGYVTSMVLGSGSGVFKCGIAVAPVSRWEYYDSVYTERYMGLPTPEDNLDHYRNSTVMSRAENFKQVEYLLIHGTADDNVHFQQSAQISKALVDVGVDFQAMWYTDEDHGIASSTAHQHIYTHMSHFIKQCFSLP

Compound: CC[C@H](C)[C@H](NC(=O)[C@H](Cc1ccccc1)NC(=O)[C@H](CC(=O)O)NC(=O)[C@H](CCCNC(=N)N)NC(=O)[C@@H](NC(=O)[C@H](C)NC(=O)[C@H](CC(C)C)NC(=O)[C@H](CC(N)=O)NC(=O)[C@H](CC(=O)O)NC(=O)[C@H](CC(C)C)NC(=O)[C@@H](NC(=O)[C@@H](NC(=O)[C@H](CC(N)=O)NC(=O)[C@H](CCSC)NC(=O)[C@H](CCC(=O)O)NC(=O)[C@H](CC(=O)O)NC(=O)[C@H](CO)NC(=O)[C@H](Cc1ccccc1)NC(=O)[C@H](CO)NC(=O)CNC(=O)[C@H](CC(=O)O)NC(=O)[C@@H](C)NC(=O)[C@@H](N)Cc1c[nH]cn1)[C@@H](C)O)[C@@H](C)CC)[C@@H](C)O)C(=O)N[C@@H](CC(N)=O)C(=O)N[C@@H](Cc1c[nH]c2ccccc12)C(=O)N[C@@H](CC(C)C)C(=O)N[C@H](C(=O)N[C@@H](CCC(N)=O)C(=O)N[C@H](C(=O)N[C@@H](CCCCN)C(=O)N[C@H](C(=O)N[C@H](C(=O)N[C@@H](CC(=O)O)C(=O)O)[C@@H](C)O)[C@@H](C)CC)[C@@H](C)O)[C@@H](C)CC [compound 3, [D-Ala^2]rGLP-2] (H-H[dA]DGSFSDEMNTILDNLATRDFINWLIQTKITD-OH)
- cleavage products detected (human placental DPP-IV): No cleavage products were detected

Compound: GLP-2: glucagon-like peptide GLP-2 as studied by Hoosein et al (literature); species not stated
- stimulation of adenylate cyclase production (adenylate cyclase [1]): nor stimulates
- concentration stimulating adenylate cyclase (adenylate cyclase [2]): 30 to 50 pM
- competition with glucagon for binding [3]: neither competes

Compound: HADGSFSDEMNTILDNLATRDFINWLIQTKITD [compound 1, rGLP-2]
- peptide cleaved by DPP-IV (human placental DPP-IV; 24 hour incubation at 37° C., 0.2 mg/ml peptide in PBS pH 7.4, RP-HPLC): 22%

Compound: HGDGSFSDEMNTILDNLATRDFINWLIQTKITD [compound 4, [Gly^2]rGLP-2]
- cleavage products detected (human placental DPP-IV): No cleavage products were detected
